Experimental data taken from patent US6339062B1, “Retroinverso polypeptides that mimic or inhibit thrombospondin activity” (Inkine Pharmaceutical Company, Inc., priority 1998, dated 2002).
Bridges are numbered along the chain shown (N, C = ends). Where no end group is shown, it is not given here. The star is where a group is joined. For = O=C*

Legend:
[1] = test system: mouse B16-F10 melanoma cells; experiment: Boyden chamber assay, TSP-1 mediated invasion of collagen (Examples 29, 30); type: cell-based; conditions: for inhibition of TSP-1 mediated invasion: 500 μg/ml peptide top chamber, 20 μg/ml TSP-1 bottom chamber, 6 hours, FIG. 18
Method: Cell invasion was investigated by the Boyden Chamber Invasion Assay using the modified Boyden chamber. T. Frandsen et al., Fibrinolysis, 6: 71-76 (1992). Polycarbonate filters, 12 μm pore size, e.g., Millicell, Millipore Corporation, Bedford, Ma, were coated with 100 μg Type IV collagen (1 mg/ml 60% EtOH) and dried overnight at 25° C. Blind-well Boyden chambers are filled with 600 μl of serum-free media containing 0.1% BSA in the lower compartment, and the coated filters will be mounted in the chamber. Approximately 50,000 cells (tested to be greater than 95% viable) suspended in 400 μl of the same media will be placed in the upper chamber of the apparatus and allowed to settle onto the collagen-coated membrane. Varying concentrations of TSP-1 (0-150 nM) will be placed in the lower compartment and any neutralizing antibodies as well as peptides will be placed in the upper chamber. After an incubation period of about 3 to 6 hours at 37° C., the cells on the upper surface of the filter will be removed with a cotton swab. The filters are then fixed in 3% glutaraldehyde solution and stained with 0.5% crystal violet solution. Invasive cells adhering to the under-surface of the filter are counted using a phase contrast microscope (400×).
Using this assay, mouse B16-F10 melanoma cells (50,000) were plated on the collagen-coated disk of the Boyden chamber apparatus. The top chamber contained melanoma cells in the presence of 500 μg/ml of the TSP-1 derived peptide and the bottom chamber contained 20 μg/ml TSP-1. After 6 hours, cells traversing the collagen were counted as cells attached to the underside of the collagen-coated disk. Five representative fields per chamber in duplicate were counted. The data shown in FIG. 18 represents the average per field and the error bars represent the standard deviation. The scrambled peptide, Val-Cys-Thr-Gly-Ser-Cys (SEQ ID NO: 7), the irrelevant peptide, Ala-Ser-Val-Thr-Ala-Arg (SEQ ID NO: 38), buffer, and the d-amino acid Cys-Ser-Val-Thr-Cys-Gly (SEQ ID NO: 40) had no effect on invasion.
The experiments were performed as described for Example 29. […] In contrast, d-Cys-Ser-Val-Thr-Cys-Gly (SEQ ID NO: 40) had no effect.

[2] = test system: mouse B16-F10 melanoma cells; experiment: Direct adhesion to dried peptide (Example 31); type: cell-based; conditions: 10 μg of each peptide; one hour; FIG. 20
Method: Peptide effect on direct adhesion was tested by drying 10 μg of each peptide on the bottom of a 96well microtiter plate. Plates were blocked with BSA. Mouse B16-F10 melanoma cells (50,000) were plated in each well and allowed to attach for one hour. Non-adherent cells were aspirated out, plates rinsed, and adherent cells were fixed, stained, and counted. The error bars represent the standard deviation.

[3] = test system: MMP-9 production in BAE cells; experiment: TSP-1-stimulated endothelial MMP-9 production (Example 27); type: cell-based; conditions: for % inhibition (MMP-9) / Relative MMP-9 Levels: with 15 μg/ml TSP-1; for inhibited MMP-9 production: at high doses
Method: BAE cells were treated with TSP-1 as described in Example 27. MMP-9 levels were quantitated from densitometry of the zymograms prepared from the BAE cell conditioned media. The control was 15 μg/ml TSP-1. All other treatments were performed in the presence of 15 μg/ml TSP-1.

[4] = test system: melanoma cells on absorbed thrombospondin; experiment: Competitive assay, thrombospondin specific adhesion to melanoma cells (Example 17); type: cell-based, mouse
Description: The direct adhesion assay of Example 16 was modified to measure the ability of the peptide compounds of the invention to compete with intact thrombospondin for adhesion to melanoma cells.
In this assay, intact thrombospondin is absorbed onto microtiter dishes as described in Example 16. […]

[5] = test system: platelets on absorbed fibronectin (FN); experiment: Competitive platelet adhesion assay, absorbed fibronectin (Example 19); type: cell-based; conditions: 250 μg/ml; absorbed protein FN
Method: (§1) The direct adhesion assay of Example 18 was modified to measure the ability of the peptide compounds of the invention to compete with intact thrombospindin or fibronectin for adhesion of platelets.
(§2) In this assay, thrombospondin (TSP) or fibronectin (FN) was absorbed onto microtiter dish as described in Example 18. The assay was similar to Example 18 except that before platelets were added to the microtiter dishes they were preincubated with 250 μg/ml of various ligands.

[6] = test system: platelets on absorbed thrombospondin (TSP); experiment: Competitive platelet adhesion assay, absorbed thrombospondin (Example 19); type: cell-based; conditions: 250 μg/ml; absorbed protein TSP
Method: as §1, §2

[7] = test system: platelets (platelet-rich-plasma); experiment: Platelet aggregation assay in platelet-rich-plasma (Example 8); type: cell-based; conditions: in vitro; FIG. 22
Method: Platelet aggregation was monitored on a single-channel aggregometer equipped to measure luminescence (Chromo-Log, Havertown, Pa.). Platelet-rich-plasma (PRP) was obtained from whole blood anticoagulated with 0.38% sodium citrate by centrifugation at 150×g for 20 minutes.
0.5 ml aliquots of platelet-rich-plasma were aggregated by stirring with 2 uM ADP in the presence of various concentrations of Cys-Ser-Val-Thr-Cys-Gly (SEQ ID NO: 21) and Gly-Arg-Gly-Asp-Ser (SEQ ID NO: 36). Aggregation was measured at 37° as decrease in optical absorbance vs. time in a chrono-log aggregometer and is shown in FIG. 8. Peptides designated in each panel are represented by their amino acid sequence using the one letter amino acid code.

[8] = test system: Mouse B16 F10 melanoma cells; experiment: Direct adhesion assay (Example 16); type: cell-based; conditions: absorbed compound 2 μg
Method: It is believed that thrombospondin acts in metastasis through its adhesive properties. An assay was developed, generally in accordance with the disclosure of Tuszynski et al., Anal. Bio., 184:189-91 (1990), which evaluates the ability of melanoma cells to adhere to the thrombospondin fragments or analogs of the invention. In this assay, wells of a 96-well microtiter dish (Costar, Cambridge, Mass.) were incubated for two to three hours with […] of a […] solution of various ligands in 20 mM NaCl, pH 7.3. Thrombospondin (purified by the method of Tuszynski et al., J. Biol. Chem., 260:12240-5 (1985), fibronectin (Sigma Chemical Co., Missouri) served as the positive control. Bovine serum albumin (BSA) (Sigma Chemical Co.) served as the negative control. Thrombospondin analogs of the invention p1, p5 and p6 were synthesized as described in Examples 1 through 3. Following peptide adhesion to the microtiter dish, the wells were aspirated, treated with 200 μl phosphate buffered saline (PBS) containing 1% BSA for 1 hour and then washed three more times with 200 μl PBS.
Mouse B16 F10 melanoma cells were grown and harvested during log phase of growth using standard procedures. The harvested cells were washed two times in serum-free Dulbecco's minimum essential medium (DMEM) (Flow Laboratories) and suspended in DMEM at a final concentration of 4×10^5 cells/ml. Of the cell suspension 100 μl was added to each well of the microtiter dish containing the various ligands and the dish incubated at 37° C. in a CO2 incubator for 1 hour. Nonadherent cells were removed by aspiration and the wells washed three times with 200 μl of PBS. The total cell-associated protein was determined by dissolving the attached cells directly in the microtiter wells with 200 μl of the Pierce BCA working solution (Pierce Chem. Co. Booklet No. 23225 (1987)). […] Plates were allowed to cool to room temperature, cover sheets were removed, and the absorbance of each well was determined at 562 nm with a microtiter plate reader (Biotek, Burlington, Vt.)

[9] = test system: B16 F10 mouse melanoma cells; experiment: Antimetastatic activity in vivo (Example 20); design: species or system C57 black mice; conditions: 16 days
[10] = test system: mouse B16-F10 melanoma cells; experiment: Melanoma tumor cell metastasis, peptide i.v. (Example 21); type: in vivo, mice; conditions: 1 mg peptide i.v. shortly before or after tumor implantation; two weeks; FIG. 12
Description: Mice were sacrificed two weeks later and lung tumors counted. Treatment groups consisted of five animals. The photograph of FIG. 12 depicts three lungs from each treatment group. The black spots are melanoma tumors. All metastasis experiments were repeated 2-3 times showing qualitatively similar results depicted in the bar graph of FIG. 12.

platelets = experiment: Direct platelet adhesion assay (Example 18); type: cell-based; conditions: wells treated with 50 μl of 40 μg/ml
Method: The number of adherent platelets was essentially determined as previously described (Tuszynski et al., Anal. Bio., supra). Briefly, 100 μl of 5×10^8 platelets/ml washed as previously described (Tuszynski, et al., Blood, 72:109-225 (1988)) were added to microtiter plates, the wells of which were treated with 50 μl of a 40 μg/ml peptide or protein solution (Hepes buffered saline, pH 7.4). Solutions were dried at room temperature after incubation in a fume hood for two hours. Wells were blocked for one hour with 1% BSA. Platelets (100 μl) were incubated in the wells for 30 minutes and non-adherent platelets were removed by aspiration. Wells were washed 3× with 200 μl of Hepes buffered saline, pH 7.4. The number of adherent platelets was determined by measuring the platelet-derived protein using the BCA protein assay.

## VCTGSC (cysteine pairing not given here) [scrambled peptide control, reference compound]
[1]
  inhibition of TSP-1 mediated invasion: no effect
[2]
  adhesion of cells to dried peptide: did not promote adhesion

## Heparin
[3]; 50 μg/ml
  % inhibition (MMP-9): 6%
  Relative MMP-9 Levels: 0.94
[3]; 500 μg/ml
  % inhibition (MMP-9): 55%
  Relative MMP-9 Levels: 0.45
[3]; 1000 μg/ml
  % inhibition (MMP-9): 50%
  Relative MMP-9 Levels: 0.50
[3]
  inhibited MMP-9 production: 50%

## d-Gly-Cys-(Acm)-Thr-Val-Ser-Cys-(Acm)
[1]; FIG. 19
  dose-dependent effect on melanoma cell invasion: same dose-dependent inhibition
[2]
  adhesion of cells to dried peptide: half as well as fibronectin and TSP-1

## fTrp-Ser-Pro-Cys-Ser-Val-Thr-Cys-Gly-NH2 (For-WSPCSVTCG-NH2; cysteine pairing not given here) [p5]
[4]; 10 μg/ml
  % of Buffer Control (melanoma cell adhesion to thrombospondin): 99%
[4]; 50 μg/ml
  % of Buffer Control (melanoma cell adhesion to thrombospondin): 104%
[4]; 200 μg/ml
  % of Buffer Control (melanoma cell adhesion to thrombospondin): 89%
[4]; 300 μg/ml
  % of Buffer Control (melanoma cell adhesion to thrombospondin): 83%
[5]
  % Buffer Control (platelet adhesion): 109%
[6]
  % Buffer Control (platelet adhesion): 107%
[7]
  platelet aggregation: inhibit platelet aggregation
[8]
  Adhesion as % Thrombospondin: display adhesive properties
[8]; listed as P5
  Adhesion as % Thrombospondin: 79%
[9]; 30 μg/mouse
  % buffer control (number of lung tumors): 87%
[9]
  number of tumors compared with controls: statistically fewer tumors than controls

## ASVTAR [irrelevant peptide]
[1]
  inhibition of TSP-1 mediated invasion: no effect
[2]
  adhesion of cells to dried peptide: did not promote adhesion
[3]; 0.20 mM
  Relative MMP-9 Levels: 0.78
[3]
  inhibited MMP-9 production: no effects

## CSTSCG (cysteine pairing not given here)
[10]
  melanoma cell metastasis (lung tumors): significantly blocked

## Thrombospondin: purified thrombospondin, positive control [reference compound]
[8]
  Adhesion as % Thrombospondin: 100%
platelets
  Adherence as % Control (adherent platelets): 100%

## Cys-Ser-Val-Thr-Cys-Gly (disulfide linked) (CSVTCG; disulfide 1-5 (inferred)) [cyclic Cys-Ser-Val-Thr-Cys-Gly]
[10]
  melanoma cell metastasis (lung tumors): significantly blocked

## fibronectin [reference compound]
platelets
  Adherence as % Control (adherent platelets): 83%

## Arg-Gly-Asp
[3]; 0.50 mM
  % inhibition (MMP-9): 0%
  Relative MMP-9 Levels: 1.03
[3]
  inhibited MMP-9 production: no effects

## Trp-Ser-Pro-Cys-Ser-Val-Thr-Cys-Gly-NH2 (WSPCSVTCG-NH2; cysteine pairing not given here) [p6]
[4]; 200 μg/ml
  % of Buffer Control (melanoma cell adhesion to thrombospondin): 74%
[4]; 300 μg/ml
  % of Buffer Control (melanoma cell adhesion to thrombospondin): 74%
[5]
  % Buffer Control (platelet adhesion): 96%
[6]
  % Buffer Control (platelet adhesion): 98%
[7]
  platelet aggregation: inhibit platelet aggregation
[9]; 30 μg/mouse
  % buffer control (number of lung tumors): 91%
[9]; 100 μg/mouse
  % buffer control (number of lung tumors): 102%
[9]; 300 μg/mouse
  % buffer control (number of lung tumors): 50%
[9]
  number of tumors compared with controls: statistically fewer tumors than controls
  size of lung tumors: smaller in size

## WSPCSVTCG (cysteine pairing not given here) [p1]
[4]; 10 μg/ml
  % of Buffer Control (melanoma cell adhesion to thrombospondin): 49%
[4]; 50 μg/ml
  % of Buffer Control (melanoma cell adhesion to thrombospondin): 40%
[7]
  platelet aggregation: inhibit platelet aggregation
platelets
  Adherence as % Control (adherent platelets): adhere to platelets
platelets; listed as P1
  Adherence as % Control (adherent platelets): 39%
[9]; 30 μg/mouse
  % buffer control (number of lung tumors): 49%
[9]
  number of tumors compared with controls: statistically fewer tumors than controls
  size of lung tumors: smaller in size
